The values that follow come from US9061004B2, “15-PGDH in colon cancer” (Case Western Reserve University, priority 2009, dated 2015).

Data set [1] can be described thus: Celecoxib tissue levels in colonic mucosa by LC/MS/MS. It counts as in vivo, mouse. The following applies: 2 weeks celecoxib supplemented diet, mean ± SEM. The protocol: Mouse studies were conducted in the Case Animal Resource Center under a protocol approved by the Institutional Animal Care and Use Committee. 15-Hydroxyprostaglandin dehydrogenase (15-PGDH) knockout mice on a C57BL/6J background were generated as described previously (Myung, S. J. et al., (2006) Proc Natl Acad Sci USA 103, 12098-102; Coggins, K. G. et al, (2002) Nat Med 8, 91-2) and were bred to generation F8 onto an FVB/N (Jackson Laboratory, Bar Harbor, Me.) background, with genotyping done as previously described (Myung, S. J. et al., (2006) Proc Natl Acad Sci U S A 103, 12098-102). 15-PGDH +/− mice generation F8 were intercrossed and siblings of 15-PGDH +/+ and −/− genotypes were selected out for studies with AOM and celecoxib. Eight- to 12-week-old mice were administered AOM by i.p. injection once weekly for 6 weeks at 10mg/kg dose (Sigma Chemical Co., St. Louis, Mo.). Mice were euthanized 24 weeks after the last AOM injection. […]
Following 2 weeks of control or celecoxib supplemented diet mice were euthanized. […] The celecoxib level in the samples was determined by LC/MS/MS. […] Celecoxib was detected and quantified by operating the mass spectrometer in electrospray negative ion mode and monitoring the transition m/z 380.2>316.1. Quantification was done by comparing the sample peak areas to a standard curve and concentration of celecoxib was normalized by protein concentration.

Data set [2] deals with colorectal adenomas. Briefly: Adenoma Prevention with Celecoxib (APC) trial, recurrent adenomas at 36 months. It counts as in vivo, human. The following applies: 16 individuals, 36 months of daily celecoxib. An excerpt: To test this hypothesis, we examined frozen biopsies of rectal mucosa obtained from 16 individuals at the time of their enrollment in the Adenoma Prevention with Celecoxib (APC) trial (Bertagnolli, M. M. et al., (2006) N Engl J Med 355, 873-84). These individuals were all at high risk for colon adenoma development based on having had multiple colon adenomas and/or adenomas greater than 5 mm in diameter prior to their enrollment. Following clearing of their colonic adenomas by colonoscopy, each individual received 36-months of daily treatment with celecoxib (Bertagnolli, M. M. et al., (2006) N Engl J Med 355, 873-84). […] In total 9 new adenomas were detected in these patients (FIG. 3). 15-PGDH levels among individuals who developed new adenomas were lower than 15-PGDH levels among individuals who remained adenoma free (P=0.04) (FIG. 3). […] The relationship of low 15-PGDH level to celecoxib resistance becomes even stronger if analyzed in terms of the numbers of new adenomas that individuals developed, with 8 of the 9 adenomatous polyps that recurred during celecoxib treatment arising in individuals with colonic 15-PGDH values below the cohort median (P=0.01), and with all 9 new adenomas arising in individuals with colonic 15-PGDH below the cohort mean (P=0.001) (FIG. 3). […]

The test system of data set [3] is PGE2. Briefly: Colonic mucosal PGE2 levels by LC/MS/MS after 2 weeks of celecoxib diet. The following applies: 2 weeks celecoxib diet, mean ± SEM. It counts as in vivo, mouse. The protocol:
To further investigate the mechanism of celecoxib's dependence on 15-PGDH, we determined PGE2 levels in colonic mucosa of FVB mice under different experimental conditions. Consistent with the role of 15-PGDH in mediating prostaglandin degradation, 15-PGDH gene knockout essentially doubled FVB colonic PGE2 levels (9.1±1.5 ng/mg protein in knockouts versus 5.70±0.8 ng/mg protein in controls, P=0.04) (FIG. 1D). […] In contrast, in 15-PGDH knockout mice the biochemical activity of celecoxib was much attenuated, with the drug lowering PGE2 levels to only 4.7±0.8 ng/mg protein. […] In overview, the efficacy of celecoxib in lowering colonic PGE2 levels in these different models closely paralleled the drug's anti-tumor activity (FIG. 1D versus FIG. 1A, 1B), and mice that lacked 15-PGDH equally acquired resistance to celecoxib's biochemical activity of lowering colonic PGE2 and to celecoxib's phenotypic effect of preventing colon tumors. Celecoxib resistance of 15-PGDH null mice was not due to any change in drug absorption or catabolism, as tissue levels of celecoxib were indistinguishable between drug treated 15-PGDH wild-type and null mice (39.5±9.7 versus 37.7±7.6 ng/mg protein, P=0.7) (FIG. 2A). […] Rather, the effective depletion of colonic PGE2 required the COX-2 inhibitor drug to act in concert with the independent prostaglandin degrading activity of 15-PGDH. […]

Data set [4] deals with AOM induced colon tumors. Briefly: AOM induced colon tumor development in FVB mice on dietary celecoxib. The following applies: for AOM induced colon tumors per mouse / AOM induced large colon tumors (>1 mm) per mouse: mean ± SEM. It counts as in vivo, mouse. The text has this: To conduct this study FVB mice were selected, chosen because at baseline this mouse strain is sensitive to AOM induced colon tumors (Nambiar, P. R. et al., (2003) Int J Oncol 22, 145-50). In 15-PGDH wild-type FVB mice, AOM induced 2.3±0.4 tumors per mouse colon (FIG. 1A, 1C), which on histology review were all adenomatous lesions. As in human trials, administering dietary celecoxib protected wild-type FVB mice against colon tumor development, reducing adenoma development to 0.7±0.3 tumors per mouse (P=0.003) (FIG. 1A, 1C). Furthermore, while nearly all tumors arising in control mice exceeded 1 mm in size, tumors in celecoxib treated mice rarely reached this size (2.2±0.4 versus 0.3±0.1, P<0.0001) (FIG. 1B).
Dietary celecoxib could thus near completely protect wild-type FVB mice from developing colon tumors. […] Thus, celecoxib treated 15-PGDH null mice developed 5.5-fold more colon adenomas than did their celecoxib treated 15-PGDH wild-type littermates (3.9±0.8 versus 0.7±0.3, P=0.0001) (FIG. 1A, 1C). Moreover, all colonic adenomas arising in celecoxib treated knockout mice were large, each exceeding 1 mm in size; whereas, large tumors were nearly completely absent in celecoxib treated 15-PGDH wild-type mice (3.9±0.8 large tumors per knockout mouse versus 0.3±0.1 per wild-type, P=0.0001) (FIG. 1B, 1C). By several measures, 15-PGDH knockout mice were almost completely resistant to the colon tumor prevention effects of celecoxib. […] Moreover, colon tumor development in celecoxib treated 15-PGDH knockout mice actually exceeded that of drug untreated wild-type mice (3.9±0.8 versus 2.2±0.4 respectively, for tumors >1 mm in size, P=0.04; and, 3.9±0.8 versus 2.3±0.4 respectively tumors of any size, P=0.06) (FIG. 1A, 1B). We conclude that celecoxib mediated colon tumor prevention requires concurrent presence of the prostaglandin inactivating activity of colonic 15-PGDH, and that 15-PGDH loss confers in vivo resistance to this drug effect.
Mouse studies were conducted in the Case Animal Resource Center under a protocol approved by the Institutional Animal Care and Use Committee. 15-Hydroxyprostaglandin dehydrogenase (15-PGDH) knockout mice on a C57BL/6J background were generated as described previously (Myung, S. J. et al., (2006) Proc Natl Acad Sci USA 103, 12098-102; Coggins, K. G. et al, (2002) Nat Med 8, 91-2) and were bred to generation F8 onto an FVB/N (Jackson Laboratory, Bar Harbor, Me.) background, with genotyping done as previously described (Myung, S. J. et al., (2006) Proc Natl Acad Sci U S A 103, 12098-102). 15-PGDH +/− mice generation F8 were intercrossed and siblings of 15-PGDH +/+ and −/− genotypes were selected out for studies with AOM and celecoxib. Eight- to 12-week-old mice were administered AOM by i.p. injection once weekly for 6 weeks at 10mg/kg dose (Sigma Chemical Co., St. Louis, Mo.). Mice were euthanized 24 weeks after the last AOM injection. After euthanizing, the colons were opened longitudinally, rinsed with ice-cold PBS, and examined under a dissecting microscope to identify all tumors. Tumors were resected, fixed in 10% neutral buffered formalin, and paraffin-embedded for histologic examination. All mice received an AIN-76A diet (Harlan Teklad, Madison, Wis.). The diet of celecoxib treated mice was supplemented with 1250 mg/kg of this agent (LKT laboratories, St. Paul, Minn.) (Williams, C. S. et al., (2000) Cancer Res 60, 6045-51). In AOM studies, celecoxib supplementation was initiated starting the day of first AOM injection and continued throughout the lifetime of the mouse. In studies of colonic prostaglandin levels celecoxib was administered to a cohort of 8-12 week old mice continuously for 2 weeks, at which time mice were euthanized.
Prostaglandin and celecoxib levels were log transformed in order to be approximately normally distributed for analysis with a generalized linear regression model with contrasts, generating two-sided P-values. […]

The test system of data set [5] is 15-PGDH mRNA. To be noted: cited from earlier work.

Regarding `Cc1ccc(-c2cc(C(F)(F)F)nn2-c2ccc(S(N)(=O)=O)cc2)cc1` [celecoxib], the “Tissue level of celecoxib in colonic mucosa” value in data set [1] (15-PGDH null mice) was 37.7±7.6 ng/mg protein; in data set [1] (15-PGDH wild-type mice) it was 39.5±9.7 ng/mg protein. In addition, the “Total new adenomas detected” value in data set [2] turned out to be 9. Besides, the results for the “Colonic mucosal PGE2 level” value in data set [3] (15-PGDH knockout FVB mice) and in data set [3] (15-PGDH wild-type FVB mice) were 4.7±0.8 ng/mg protein and 1.6±0.4 ng/mg protein, respectively. In addition, the “AOM induced colon tumors per mouse” value turned out to be 3.9±0.8 in data set [4] (15-PGDH knockout (null) FVB mice, dietary celecoxib) and 0.7±0.3 tumors per mouse in data set [4] (15-PGDH wild-type FVB mice, dietary celecoxib 1250 mg/kg diet). Besides, the “AOM induced large colon tumors (>1 mm) per mouse” value is on record as 3.9±0.8 large tumors per knockout mouse in data set [4] (15-PGDH knockout FVB mice, dietary celecoxib) and 0.3±0.1 in data set [4] (15-PGDH wild-type FVB mice, dietary celecoxib). Also, the “Prevention of AOM induced tumors >1 mm in size” value in data set [4] (FVB mice (15-PGDH wild-type)) was determined as 85%. In data set [4] (null versus wild-type, both celecoxib treated), the “Colon adenomas in celecoxib treated 15-PGDH null mice relative to celecoxib treated wild-type littermates” value was found to be 5.5 fold.
As to `C#Cc1cccc(Nc2ncnc3cc(OCCOC)c(OCCOC)cc23)c1` [erlotinib], the “Effect on 15-PGDH mRNA levels” value in data set [5] is given as “induce 15-PGDH mRNA levels”.
